Among the data in article PMC7988154, “Mechanism of substrate transport and inhibition of the human LAT1-4F2hc amino acid transporter” (Cell Discovery, 2021) are IC50 values, retold here.

The target of this assay is T1, LAT1 (SLC7A5) (Homo sapiens, UniProt Q01650).
T1 construct: with 4F2hc (SLC3A2)
T1 sequence (Q01650 whole entry): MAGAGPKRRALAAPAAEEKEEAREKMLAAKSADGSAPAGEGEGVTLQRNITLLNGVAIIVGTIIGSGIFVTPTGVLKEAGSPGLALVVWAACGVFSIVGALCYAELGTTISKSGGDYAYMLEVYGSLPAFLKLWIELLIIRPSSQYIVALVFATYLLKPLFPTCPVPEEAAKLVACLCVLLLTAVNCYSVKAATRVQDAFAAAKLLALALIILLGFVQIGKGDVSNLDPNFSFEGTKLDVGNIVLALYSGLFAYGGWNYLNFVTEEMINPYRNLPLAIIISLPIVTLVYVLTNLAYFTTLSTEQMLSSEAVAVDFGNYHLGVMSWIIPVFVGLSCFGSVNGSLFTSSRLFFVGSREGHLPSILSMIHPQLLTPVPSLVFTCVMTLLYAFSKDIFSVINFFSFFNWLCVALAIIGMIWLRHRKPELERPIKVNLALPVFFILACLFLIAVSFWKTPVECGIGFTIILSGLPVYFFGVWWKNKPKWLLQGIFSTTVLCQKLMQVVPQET
T1 sequence (P08195 103-630 partner): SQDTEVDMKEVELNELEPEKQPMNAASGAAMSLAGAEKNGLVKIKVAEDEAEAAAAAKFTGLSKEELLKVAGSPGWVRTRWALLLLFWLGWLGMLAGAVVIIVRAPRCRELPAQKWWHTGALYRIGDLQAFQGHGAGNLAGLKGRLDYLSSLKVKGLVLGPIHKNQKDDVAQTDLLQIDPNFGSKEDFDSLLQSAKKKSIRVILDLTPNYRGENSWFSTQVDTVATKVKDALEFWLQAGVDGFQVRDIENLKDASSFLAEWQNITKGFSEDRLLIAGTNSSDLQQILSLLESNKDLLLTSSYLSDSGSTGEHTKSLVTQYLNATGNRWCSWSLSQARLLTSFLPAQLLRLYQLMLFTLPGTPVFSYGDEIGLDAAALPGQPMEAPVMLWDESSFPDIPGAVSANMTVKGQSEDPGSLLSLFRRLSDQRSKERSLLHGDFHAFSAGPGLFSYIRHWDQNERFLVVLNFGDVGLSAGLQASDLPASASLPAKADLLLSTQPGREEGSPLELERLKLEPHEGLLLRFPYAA
Kind of assay: cryo-EM structure of the LAT1-4F2hc complex; IC50 from [3H]-L-leucine uptake in HT-29 cells. The assay is classed as cell-based.
In turn, `NC1(C(=O)O)CCc2ccc(OCc3cccc4ccccc34)cc2C1` (stereo not drawn) [JX-075] returned an IC50 of 165 nM.

In turn, `NC1(C(=O)O)CCc2ccc(OCc3ccccc3-c3ccccc3)cc2C1` (stereo not drawn) [JX-078] displayed an IC50 of 121 nM.

With `NC1(C(=O)O)CCc2ccc(OCc3ccccc3-c3nc4ccccc4o3)cc2C1` (stereo not drawn) [JX-119], the IC50 came out at 234 nM.
